Our source for the IC50 values is patent US20230087118A1, “IMIDAZO[1,2-a][sequence] DERIVATIVES AND THEIR USE IN THE TREATMENT OF DISEASE” (priority 2019, published 2023).

SMILES strings stand for the structures. Structures can show the parent of a compound that is named as a salt.

By IC50 is commonly meant the midpoint of a concentration-inhibition curve.

For one test, the target named is T1, IRAK4 (Homo sapiens, UniProt Q9NWZ3).
T1 sequence (Q9NWZ3 1-460): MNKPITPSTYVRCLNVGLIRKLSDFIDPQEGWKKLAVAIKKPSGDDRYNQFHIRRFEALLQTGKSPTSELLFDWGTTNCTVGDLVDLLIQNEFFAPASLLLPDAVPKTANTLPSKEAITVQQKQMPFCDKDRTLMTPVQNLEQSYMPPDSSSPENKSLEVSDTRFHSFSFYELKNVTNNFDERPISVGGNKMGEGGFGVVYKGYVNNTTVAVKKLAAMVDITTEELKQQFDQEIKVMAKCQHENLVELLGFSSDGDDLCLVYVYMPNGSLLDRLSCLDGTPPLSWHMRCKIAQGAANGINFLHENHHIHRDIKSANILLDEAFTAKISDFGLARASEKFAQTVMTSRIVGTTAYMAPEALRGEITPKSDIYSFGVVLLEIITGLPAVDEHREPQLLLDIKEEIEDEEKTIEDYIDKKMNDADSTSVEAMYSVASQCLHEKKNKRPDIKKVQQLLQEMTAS
Briefly: biochemical.
Details: not given
For the molecule `CC(C)Oc1cc2nc(C34CCC(C3)OC4)cn2cc1C(=O)Nc1cccc(C(F)F)n1` (stereo not drawn) [Example 246], the IC50 amounted to 0.0002 µM.

`CC(C)Oc1nc(C(=O)Nc2ccn(C)n2)cn2cc(C34CCC(C)(CC3)OC4)nc12` [Example 429, 8-Isopropoxy-N-(1-methyl-1H-pyrazol-3-yl)-2-(1-methyl-2-oxabicyclo[2.2.2]octan-4-yl)imidazo[1,2-a]pyrazine-6-carboxamide] came in with a 50% inhibitory concentration (IC50) of 0.0018 µM.

Molecule `CC(C)Oc1nc2nc(C34COC(C)(C3)C4)cn2cc1C(=O)Nc1cccc(-c2cnoc2)n1` [Example 640, 7-Isopropoxy-N-(6-(isoxazol-4-yl)pyridin-2-yl)-2-(1-methyl-2-oxabicyclo[2.1.1]hexan-4-yl)imidazo[1,2-a]pyrimidine-6-carboxamide] returned an IC50 of 0.0007 µM.

`CC(C)Oc1cc2nc(C34CCC(C)(C3)OC4)cn2cc1C(=O)Nc1nc(C(F)F)cs1` (stereo not drawn) [Example 516, N-(4-(difluoromethyl)thiazol-2-yl)-7-isopropoxy-2-(1-methyl-2-oxabicyclo[2.2.1]heptan-4-yl)imidazo[1,2-a]pyridine-6-carboxamide]: the IC50 is 0.0015 µM.

The molecule `CC(C)Oc1cc2nc(C34COC(C)(C3)C4)cn2cc1C(=O)Nc1ccn(CC#N)n1` [Example 313, N-(1-(cyanomethyl)-1H-pyrazol-3-yl)-7-isopropoxy-2-(1-methyl-2-oxabicyclo[2.1.1]hexan-4-yl)imidazo[1,2-a]pyridine-6-carboxamide] yielded an IC50 of 0.0036 µM.

As to `COCCCc1cn2cc(C(=O)Nc3cccc(C(F)F)n3)c(OC(C)C)cc2n1` [Example 102, N-(6-(difluoromethyl)pyridin-2-yl)-7-isopropoxy-2-(3-methoxypropyl)imidazo[1,2-a]pyridine-6-carboxamide], the IC50 turned out to be 0.0004 µM.

Molecule `COc1ccc2ncc(NC(=O)c3cn4cc(C56COC(C)(C5)C6)nc4cc3OC(C)C)n2n1` [Example 301, 7-Isopropoxy-N-(6-methoxyimidazo[1,2-b]pyridazin-3-yl)-2-(1-methyl-2-oxabicyclo[2.1.1]hexan-4-yl)imidazo[1,2-a]pyridine-6-carboxamide] yielded an IC50 of 0.0066 µM.

With `COc1ncccc1NC(=O)c1cn2cc(C34CCC(C)(C3)OC4)nc2nc1OC(C)C` (stereo not drawn) [Example 248], the IC50 is 0.0002 µM.

In the case of `COc1ncccc1NC(=O)c1cn2cc(C34COC(C)(C3)C4)nc2cc1OC(C)C` [Example 216], the midpoint of inhibition, the IC50, lay at 0.0005 µM. This IC50 is about 2.5-fold higher than that of the molecule before.

`CCOc1nc(C(=O)Nc2cccnc2OC)cn2cc(C3CCOCC3)nc12` [Example 209] came in with an IC50 of 0.0057 µM.

`COc1cc2nc(C3CCOCC3)cn2cc1C(=O)Nc1ncnc2cccnc12` [Example 204, 7-Methoxy-N-(pyrido[3,2-d]pyrimidin-4-yl)-2-(tetrahydro-2H-pyran-4-yl)imidazo[1,2-a]pyridine-6-carboxamide] displayed an IC50 of 0.429 µM.

In turn, `COc1ncccc1NC(=O)c1cn2cc(C34CCC(C)(C3)OC4)nc2c(OC(C)C)n1` (stereo not drawn) [Example 239] showed an IC50 of 0.0008 µM.

In the case of `Cc1cnc2c(NC(=O)c3cn4cc(C56CCC(C)(C5)OC6)nc4cc3OC3CC3)cnn2c1` (stereo not drawn) [Example 555], inhibition was half-maximal at 0.0016 µM (IC50).

Consider `Cc1cccc(NC(=O)c2cn3cc(C45COC(C)(C4)C5)nc3cc2OC(C)C)n1` [Example 259, 7-Isopropoxy-2-(1-methyl-2-oxabicyclo[2.1.1]hexan-4-yl)-N-(6-methylpyridin-2-yl)imidazo[1,2-a]pyridine-6-carboxamide], for which the IC50 was 0.0005 µM. This IC50 lies about 3.2-fold lower than the previous one.

On to `CC(C)Oc1cc2nc([C@]34CC[C@](C)(C3)OC4)cn2cc1C(=O)Nc1cccc(C(F)F)n1` (single isomer, unassigned) [Example 608], for which inhibition was half-maximal at 0.0001 µM (IC50).

The molecule `C[C@@]12CC[C@@](c3cn4cc(C(=O)Nc5cccc(C(F)F)n5)cc(OC(F)F)c4n3)(CO1)C2` (single isomer, unassigned) [Example 584] yielded an IC50 of 0.0154 µM.

With `Cc1cnc2c(NC(=O)c3cn4cc(C56CCC(C)(CC5)CO6)nc4nc3OC(C)C)cnn2c1` [Example 567, 7-Isopropoxy-2-(4-methyl-2-oxabicyclo[2.2.2]octan-1-yl)-N-(6-methylpyrazolo[1,5-a]pyrimidin-3-yl)imidazo[1,2-a]pyrimidine-6-carboxamide], the IC50 came out at 0.0002 µM.

In the case of `Cn1cccc(NC(=O)c2cn3cc(C45CCC(C)(C4)OC5)nc3cc2OC2CCC2)c1=O` (stereo not drawn) [Example 422, 7-Cyclobutoxy-N-(1-methyl-2-oxo-1,2-dihydropyridin-3-yl)-2-(1-methyl-2-oxabicyclo[2.2.1]heptan-4-yl)imidazo[1,2-a]pyridine-6-carboxamide], the IC50 turned out to be 0.0005 µM.

Molecule `CCOc1cc2nc([C@H]3C[C@@H]3F)cn2cc1C(=O)Nc1cccc(OC)n1` (single isomer, unassigned) [Example 66] came in with an IC50 of 0.025 µM.

Molecule `COc1cc2nc(C3CCOCC3)cn2cc1C(=O)Nc1cccc(CO)n1` [Example 202] gave a half-maximal inhibitory concentration (IC50) of 0.0137 µM.

With `CCOc1cc2nc([C@@H]3C[C@@H]3F)cn2cc1C(=O)Nc1cccc(OC)n1` [Example 80], half-maximal inhibition (IC50) was put at 0.029 µM.

The molecule `C[C@]12CC[C@](c3cn4cc(C(=O)Nc5cccc(C(F)F)n5)nc(OC5CCC5)c4n3)(CO1)C2` (single isomer, unassigned) [Example 627] returned an IC50 of 0.0004 µM.

As for `CC(C)Oc1cc2nc(C34CC(C3)C4)cn2cc1C(=O)Nc1cccc(C(F)F)n1` [Example 215], the IC50 turned out to be 0.0013 µM. This IC50 lies about 3.2-fold higher than the previous one.

As for `COc1nc(C(=O)Nc2ccnn2C)cn2cc(C3CCOCC3)nc12` [Example 89], the IC50 turned out to be 5.69 µM. Compared with the last molecule, the IC50 is about 4400-fold higher.

As for `Cn1ccc(NC(=O)c2cn3cc(C45COC(C)(C4)C5)nc3cc2OC2CC3(CC3)C2)n1` [Example 550], the IC50 was 0.002 µM. This IC50 lies about 2800-fold lower than the previous one.

The molecule `COCc1cc2nc(C34COC(C)(C3)C4)cn2cc1C(=O)Nc1cccn(C)c1=O` [Example 287, 7-(Methoxymethyl)-N-(1-methyl-2-oxo-1,2-dihydropyridin-3-yl)-2-(1-methyl-2-oxabicyclo[2.1.1]hexan-4-yl)imidazo[1,2-a]pyridine-6-carboxamide] came in with an IC50 of 7.14 µM.

With `CCCOc1nc(C(=O)Nc2cccc(C(F)(F)F)n2)cn2cc(C34COC(C)(C3)C4)nc12` [Example 343, 2-(1-Methyl-2-oxabicyclo[2.1.1]hexan-4-yl)-8-propoxy-N-(6-(trifluoromethyl)pyridin-2-yl)imidazo[1,2-a]pyrazine-6-carboxamide], half-maximal inhibition (IC50) required 0.0048 µM.

In the case of `CCn1ccc(NC(=O)c2cn3cc(C45COC(C)(C4)C5)nc3cc2OC2CCC2)n1` [Example 528, 7-Cyclobutoxy-N-(1-ethyl-1H-pyrazol-3-yl)-2-(1-methyl-2-oxabicyclo[2.1.1]hexan-4-yl)imidazo[1,2-a]pyridine-6-carboxamide], the IC50 came to 0.0052 µM.

With `CC12CC(c3cn4cc(C(=O)Nc5cccn(C(F)F)c5=O)c(OC5CCOCC5)cc4n3)(CO1)C2` [Example 454, N-(1-(difluoromethyl)-2-oxo-1,2-dihydropyridin-3-yl)-2-(1-methyl-2-oxabicyclo[2.1.1]hexan-4-yl)-7-((tetrahydro-2H-pyran-4-yl)oxy)imidazo[1,2-a]pyridine-6-carboxamide], 0.0024 µM corresponded to half-maximal inhibition (IC50).

On to `CC(C)Oc1cc2nc(C34CCC(C)(C3)OC4)cn2cc1C(=O)Nc1ccc(F)cn1` (stereo not drawn) [Example 517, N-(5-fluoropyridin-2-yl)-7-isopropoxy-2-(1-methyl-2-oxabicyclo[2.2.1]heptan-4-yl)imidazo[1,2-a]pyridine-6-carboxamide], for which the IC50 amounted to 0.0043 µM.

`CC(C)Oc1cc2nc(C34COC(C)(C3)C4)cn2cc1C(=O)Nc1ccc(F)cn1` [Example 244]: the 50% inhibitory concentration (IC50) was determined as 0.0059 µM.

In turn, `COc1cnccc1NC(=O)c1cn2cc(C3CCOCC3)nc2cc1OC` [Example 195] yielded an IC50 of 0.123 µM.

Still in this test, the particulars now being: IRAK4 Biochemical Assay (1 mM ATP, 2 h) IC50 (μM), 1 mM ATP, 2 h, 100 pM IRAK4.
In turn, `O=C(Nc1cccc(C(F)F)n1)c1cn2cc(C3CC3)nc2cc1OCC1CC(F)(F)C1` [Example 471, 2-Cyclopropyl-7-((3,3-difluorocyclobutyl)methoxy)-N-(6-(difluoromethyl)pyridin-2-yl)imidazo[1,2-a]pyridine-6-carboxamide] gave an IC50 of 0.0058 µM.

Consider `COc1cccc(NC(=O)c2cn3cc(C45CC(C)(CO4)C5)nc3cc2OC)n1` [Example 26], for which the IC50 came to 0.124 µM.

On to `CCOc1nc(C(=O)Nc2cccc(C(F)F)n2)cn2cc(C3CCOCC3)nc12` [Example 207, N-[6-(difluoromethyl)-2-pyridyl]-8-ethoxy-2-tetrahydropyran-4-ylimidazo[1,2-a]pyrazine-6-carboxamide trifluoroacetate], for which inhibition was half-maximal at 0.0147 µM (IC50).

Regarding `CCOc1nc(C(=O)Nc2cccc3ccnn23)cn2cc(C34CCC(C)(C3)OC4)nc12` (stereo not drawn) [Example 278, 8-Ethoxy-2-(1-methyl-2-oxabicyclo[2.2.1]heptan-4-yl)-N-(pyrazolo[1,5-a]pyridin-7-yl)imidazo[1,2-a]pyrazine-6-carboxamide trifluoroacetate], the half-inhibitory concentration (IC50) stood at 0.0011 µM.

Molecule `CC(C)Oc1nc2nc(C3C4COCC43)cn2cc1C(=O)Nc1ccn(C)n1` (stereo not drawn) [Example 396, 2-(3-Oxabicyclo[3.1.0]hexan-6-yl)-7-isopropoxy-N-(1-methyl-1H-pyrazol-3-yl)imidazo[1,2-a]pyrimidine-6-carboxamide formate] came in with an IC50 of 0.0076 µM. This IC50 is about 6.9-fold higher than that of the molecule before.

For `COc1cc2nc(C34CC(F)(C3)C4)cn2cc1C(=O)Nc1ccccn1` [Example 3], 0.217 µM corresponded to half-maximal inhibition (IC50).

`Cc1cnc2c(NC(=O)c3cn4cc(C56CCC(C)(CC5)OC6)nc4cc3OC(C)C)cnn2c1` [Example 573, 7-Isopropoxy-2-(1-methyl-2-oxabicyclo[2.2.2]octan-4-yl)-N-(6-methylpyrazolo[1,5-a]pyrimidin-3-yl)imidazo[1,2-a]pyridine-6-carboxamide] returned an IC50 of 0.0018 µM.
